Laboratory results as given in ChEMBL document CHEMBL6127052, “Discovery of membrane-targeting amphiphilic honokiol derivatives containing an oxazolethione moiety to combat methicillin-resistant Staphylococcus aureus (MRSA) infections” (Eur J Med Chem, 2024).
Converted amounts (≈) assume the structure as drawn.

Tests used:
Staphylococcus aureus [1] = assay: Antibacterial activity against methicillin-resistant Staphylococcus aureus clinical isolate M17 by CLSI based micro-broth dilution method; format: functional
Staphylococcus aureus [2] = assay: Antibacterial activity against methicillin-resistant Staphylococcus aureus clinical isolate M20 by CLSI based micro-broth dilution method; format: functional
Staphylococcus aureus [3] = assay: Antibacterial activity against Staphylococcus aureus ATCC 29213 by CLSI based micro-broth dilution method; format: functional
Staphylococcus aureus [4] = assay: Antibacterial activity against methicillin-resistant Staphylococcus aureus N315 by CLSI based micro-broth dilution method; format: functional
Staphylococcus aureus [5] = assay: Antibacterial activity against methicillin-resistant Staphylococcus aureus clinical isolate M21 by CLSI based micro-broth dilution method; format: functional
Escherichia coli = assay: Antibacterial activity against Escherichia coli ATCC 25922 by CLSI based micro-broth dilution method; format: functional
Staphylococcus aureus [6] = assay: Antibacterial activity against methicillin-resistant Staphylococcus aureus clinical isolate M11 by CLSI based micro-broth dilution method; format: functional
Staphylococcus aureus [7] = assay: Antibacterial activity against methicillin-resistant Staphylococcus aureus clinical isolate M12 by CLSI based micro-broth dilution method; format: functional
Staphylococcus aureus [8] = assay: Antibacterial activity against methicillin-resistant Staphylococcus aureus clinical isolate M13 by CLSI based micro-broth dilution method; format: functional
[9] = Hemolytic activity in sheep erythrocytes incubated for 1 hr by absorbance based assay; format: toxicity, cell-based, Ovis aries, Erythrocyte
Staphylococcus aureus [10] = assay: Antibacterial activity against methicillin-resistant Staphylococcus aureus clinical isolate M16 by CLSI based micro-broth dilution method; format: functional
Staphylococcus aureus [11] = assay: Antibacterial activity against methicillin-resistant Staphylococcus aureus clinical isolate M14 by CLSI based micro-broth dilution method; format: functional
[12] = Selectivity index, ratio of HC50 for hemolytic activity in sheep erythrocytes to MIC for antibacterial activity against Staphylococcus aureus ATCC 29213; format: toxicity, cell-based, RBC
Staphylococcus aureus [13] = assay: Antibacterial activity against methicillin-resistant Staphylococcus aureus clinical isolate M22 by CLSI based micro-broth dilution method; format: functional
Staphylococcus aureus [14] = assay: Antibacterial activity against methicillin-resistant Staphylococcus aureus clinical isolate M23 by CLSI based micro-broth dilution method; format: functional

| Compound | MIC (Staphylococcus aureus [1]) [µg/mL] | MIC (Staphylococcus aureus [2]) [µg/mL] | MIC (Staphylococcus aureus [3]) [µg/mL] | MIC (Staphylococcus aureus [4]) [µg/mL] | MIC (Staphylococcus aureus [5]) [µg/mL] | MIC (Escherichia coli) [µg/mL] | MIC (Staphylococcus aureus [6]) [µg/mL] | MIC (Staphylococcus aureus [7]) [µg/mL] | MIC (Staphylococcus aureus [8]) [µg/mL] | HC50 at 1 h [9] [µg/mL] | MIC (Staphylococcus aureus [10]) [µg/mL] | MIC (Staphylococcus aureus [11]) [µg/mL] | selectivity ratio [12] | MIC (Staphylococcus aureus [13]) [µg/mL] | MIC (Staphylococcus aureus [14]) [µg/mL] |
| --- | --- | --- | --- | --- | --- | --- | --- | --- | --- | --- | --- | --- | --- | --- | --- |
| C=CCc1cc(-c2ccc(OCCC[N+](C)(C)CC(=O)NCCCC)c(CC=C)c2)c2oc(=S)n(Cc3ccc(Br)cc3)c2c1.[Br-] | 16 | 16 | 32 | 32 | 16 | > 128 | 16 | 16 | 16 | 489 | 16 | 16 | 15.3 | 32 | 16 |
| C=CCc1ccc(O)c(-c2ccc(O)c(CC=C)c2)c1 [HONOKIOL] | 16 (≈ 60.1 µM) | 8 (≈ 30 µM) | 32 (≈ 120 µM) | 8 (≈ 30 µM) | 16 (≈ 60.1 µM) | > 128 | 16 (≈ 60.1 µM) | 8 (≈ 30 µM) | 16 (≈ 60.1 µM) | > 80 | 16 (≈ 60.1 µM) | 16 (≈ 60.1 µM) | > 2.5 | 16 (≈ 60.1 µM) | 16 (≈ 60.1 µM) |
| C=CCc1cc(-c2ccc(OCCC[N+](C)(C)CC(=O)NCCCC)c(CC=C)c2)c2oc(=S)n(Cc3cc(Cl)cc(Cl)c3)c2c1.[Br-] | 32 | 16 | 64 | 64 | 16 | > 128 | 32 | 8 | 32 | 31.3 | 32 | 32 | 0.5 | 32 | 32 |
| C=CCc1cc(-c2ccc(OCCC[N+](C)(C)CC(=O)NCCCC)c(CC=C)c2)c2oc(=S)n(Cc3ccccc3Cl)c2c1.[Br-] | 16 | 8 | 4 | 16 | 4 | > 128 | 4 | 4 | 8 | 965 | 4 | 16 | 241 | 8 | 4 |
| C=CCc1cc(-c2ccc(OCCC[N+](C)(C)CC(=O)NCCCC)c(CC=C)c2)c2oc(=S)n(Cc3ccccc3)c2c1.[Br-] | 8 | 8 | 8 | 8 | 4 | > 128 | 4 | 4 | 4 | > 160 | 4 | 4 | > 20 | 4 | 4 |
| C=CCc1cc(-c2ccc(OCCC[N+](C)(C)CC(=O)NCCCC)c(CC=C)c2)c2oc(=S)n(Cc3ccc(Cl)cc3)c2c1.[Br-] | 8 | 4 | 16 | 32 | 4 | > 128 | 4 | 4 | 8 | 519 | 8 | 16 | 32.5 | 8 | 16 |
| C=CCc1cc(-c2ccc(OCCC[N+](C)(C)CC(=O)NCCCC)c(CC=C)c2)c2oc(=S)n(Cc3ccc(Cl)c(F)c3)c2c1.[Br-] | 128 | 8 | 32 | 32 | 8 | > 128 | 8 | 8 | 16 | > 160 | 8 | 16 | > 5 | 64 | 8 |
| C=CCc1cc(-c2ccc(OCCC[N+](C)(C)CC(=O)NCCCC)c(CC=C)c2)c2oc(=S)n(Cc3ccc(OC)cc3)c2c1.[Br-] | 16 | 2 | 32 | 32 | 2 | > 128 | 2 | 2 | 4 | 57.4 | 4 | 2 | 1.8 | 8 | 8 |
| C=CCc1cc(-c2ccc(OCCC[N+](C)(C)CC(=O)NCCCC)c(CC=C)c2)c2oc(=S)n(Cc3cccc(OC)c3)c2c1.[Br-] | 8 | 4 | 8 | 8 | 4 | > 128 | 4 | 4 | 8 | > 160 | 4 | 4 | > 20 | 16 | 8 |
| C=CCc1cc(-c2ccc(OCCC[N+](C)(C)CC(=O)NCCCC)c(CC=C)c2)c2oc(=S)n(Cc3ccc(C(F)(F)F)cc3)c2c1.[Br-] | 16 | 4 | 8 | 16 | 8 | > 128 | 4 | 4 | 4 | > 160 | 8 | 8 | > 20 | 16 | 8 |
| C=CCc1cc(-c2ccc(OCCC[N+](C)(C)CC(=O)NCCCC)c(CC=C)c2)c2oc(=S)n(Cc3ccc(Cl)cc3F)c2c1.[Br-] | > 128 | > 128 | > 128 | 128 | > 128 | > 128 | > 128 | > 128 | > 128 | > 160 | > 128 | > 128 | 1.3 | > 128 | > 128 |
| C=CCc1cc(-c2ccc(OCCC[N+](C)(C)CC(=O)NCCCC)c(CC=C)c2)c2oc(=S)n(Cc3ccc(Cl)c(Br)c3)c2c1.[Br-] | 128 | > 128 | > 128 | > 128 | 128 | > 128 | 128 | > 128 | > 128 | > 160 | > 128 | > 128 | 1.3 | 128 | > 128 |
| C[C@@H](O)[C@H]1C(=O)N2C(C(=O)O)=C(S[C@@H]3CN[C@H](C(=O)N(C)C)C3)[C@H](C)[C@H]12 [MEROPENEM] | – | – | – | – | – | 0.063 (≈ 0.164 µM) | – | – | – | – | – | – | – | – | – |
| C=CCc1cc(-c2ccc(OCCC[N+](C)(C)CC(=O)NCCCC)c(CC=C)c2)c2oc(=S)n(Cc3cc(F)c(F)c(F)c3)c2c1.[Br-] | 4 | 2 | 2 | 16 | 2 | > 128 | 2 | 2 | 4 | 52.8 | 2 | 2 | – | 4 | 2 |
